Experimental data: ChEMBL document CHEMBL5131382, “Facile and divergent optimization of chromazonarol enabled the identification of simplified drimane meroterpenoids as novel pharmaceutical leads” (Eur J Med Chem, 2022)

Columns and labels:
[1] = tested on: Sclerotinia sclerotiorum; test: Antifungal activity against Sclerotinia sclerotiorum at 150 uM; format: functional
[2] = tested on: Rhizoctonia solani; test: Antifungal activity against Rhizoctonia solani at 150 uM; format: functional
[3] = tested on: Fusarium graminearum; test: Antifungal activity against Fusarium graminearum at 150 uM; format: functional
[4] = tested on: Pyricularia oryzae; test: Antifungal activity against Pyricularia oryzae at 150 uM; format: functional
[5] = tested on: Phytophthora capsici; test: Antifungal activity against Phytophthora capsici at 150 uM; format: functional
[6] = tested on: Sclerotinia sclerotiorum; test: Antifungal activity against Sclerotinia sclerotiorum; format: functional, organism-based
[7] = tested on: Rhizoctonia solani; test: Antifungal activity against Rhizoctonia solani; format: functional, organism-based
[8] = tested on: HepG2; test: Antiproliferative activity against human HepG2 cells assessed as inhibition of cell proliferation incubated for 72 hrs by MTT assay; format: functional, cell-based; conditions: HepG2, 72 h
[9] = tested on: MCF7; test: Antiproliferative activity against human MCF7 cells assessed as inhibition of cell proliferation incubated for 72 hrs by MTT assay; format: functional, cell-based; conditions: MCF7, 72 h

| Structure (SMILES) | inhibition at 150 µM [1] [%] | inhibition at 150 µM [2] [%] | inhibition at 150 µM [3] [%] | inhibition at 150 µM [4] [%] | inhibition at 150 µM [5] [%] | EC50 [6] [µM] | EC50 [7] [µM] | EC50 [8] [µM] | EC50 [9] [µM] |
| --- | --- | --- | --- | --- | --- | --- | --- | --- | --- |
| CC1(C)CCC[C@]2(C)[C@H]3Cc4cc(O)ccc4O[C@]3(C)CC[C@@H]12 | < 60 | < 60 | < 60 | < 60 | < 60 |  |  |  |  |
| CC1(C)CCC[C@]2(C)[C@@H](Cc3cc(O)ccc3O)[C@](C)(O)CC[C@@H]12 | 39 | 48 | 39 | 28 | 28 | > 150 | > 150 | > 50 | 50 |
| CC1(C)CCC[C@]2(C)[C@H]3Cc4cc(OC(=O)c5ccccn5)ccc4O[C@]3(C)CC[C@@H]12 | < 60 | < 60 | < 60 | < 60 | < 60 |  |  |  |  |
| CC1(C)CCC[C@@]2(C)C1CC[C@@]1(C)Oc3ccc(-c4ccncc4)cc3C[C@@H]12 (some centres not stated) | < 60 | < 60 | < 60 | < 60 | < 60 |  |  |  |  |
| CC1(C)CCC[C@]2(C)[C@@H](Cc3ccc(O)cc3O)[C@](C)(O)CC[C@@H]12 | 81 | 91 | 41 | 9 | 37 | 15.2 | 41.7 | 10.2 | 11.9 |
| CC1(C)CCC[C@]2(C)[C@H]3Cc4cc(OC(=O)c5cccc(F)c5)ccc4O[C@]3(C)CC[C@@H]12 | < 60 | < 60 | < 60 | < 60 | < 60 |  |  |  |  |
| CC1(C)CCC[C@]2(C)[C@H]3Cc4ccc(O)cc4O[C@]3(C)CC[C@@H]12 | 47 | 72 | 49 | 50 | 53 |  |  |  |  |
| CC1(C)CCC[C@]2(C)[C@H]3Cc4cccc(O)c4O[C@]3(C)CC[C@@H]12 | 22 | 53 | 31 | 21 | 40 |  |  |  |  |
| CC1(C)CCC[C@]2(C)[C@H]3Cc4cc(OC(=O)c5cccnc5)ccc4O[C@]3(C)CC[C@@H]12 | < 60 | < 60 | < 60 | < 60 | < 60 |  |  |  |  |
| CC1(C)CCC[C@@]2(C)C1CC[C@@]1(C)Oc3ccc(OS(=O)(=O)C(F)(F)F)cc3C[C@@H]12 (some centres not stated) | < 60 | < 60 | < 60 | < 60 | < 60 |  |  |  |  |
| Cc1c(C[C@@H]2[C@@]3(C)CCCC(C)(C)[C@H]3CC[C@]2(C)O)c(O)cc(O)c1C[C@@H]1[C@@]2(C)CCCC(C)(C)[C@@H]2CC[C@@]1(C)O | 6 | 1 | 4 | -4 | 6 |  |  |  |  |
| CC1(C)CCC[C@@]2(C)C1CC[C@@]1(C)Oc3ccc(OC(=O)Nc4ccc(F)cc4)cc3C[C@@H]12 (some centres not stated) | < 60 | < 60 | < 60 | < 60 | < 60 |  |  |  |  |
| CC1(C)CCC[C@]2(C)[C@H]3Cc4cc(OC(=O)c5ccc(F)cc5)ccc4O[C@]3(C)CC[C@@H]12 | < 60 | < 60 | < 60 | < 60 | < 60 |  |  |  |  |
| CC1(C)CCC[C@@]2(C)C1CC[C@@]1(C)Oc3ccc(-c4cccnc4)cc3C[C@@H]12 (some centres not stated) | < 60 | < 60 | < 60 | < 60 | < 60 |  |  |  |  |
| COc1ccc(-c2ccc3c(c2)C[C@H]2[C@@](C)(CCC4C(C)(C)CCC[C@@]42C)O3)cc1 (some centres not stated) | < 60 | < 60 | < 60 | < 60 | < 60 |  |  |  |  |
| CC1(C)CCC[C@@]2(C)C1CC[C@@]1(C)Oc3ccc(O)c(Cl)c3C[C@@H]12 (some centres not stated) | < 60 | < 60 | < 60 | < 60 | < 60 |  |  |  |  |
| CC1(C)CCC[C@@]2(C)C1CC[C@@]1(C)Oc3ccc(-c4cnc5ccccc5c4)cc3C[C@@H]12 (some centres not stated) | < 60 | < 60 | < 60 | < 60 | < 60 |  |  |  |  |
| CC1(C)CCC[C@]2(C)[C@H]3Cc4c(O)cccc4O[C@]3(C)CC[C@@H]12 | 52 | 75 | 43 | 45 | 54 |  |  |  |  |

| Structure (SMILES) | inhibition at 150 µM [1] [%] | inhibition at 150 µM [2] [%] | inhibition at 150 µM [3] [%] | inhibition at 150 µM [4] [%] | inhibition at 150 µM [5] [%] | EC50 [6] [µM] | EC50 [7] [µM] | EC50 [8] [µM] | EC50 [9] [µM] |
| --- | --- | --- | --- | --- | --- | --- | --- | --- | --- |
| CC1(C)CCC[C@]2(C)[C@H]3Cc4cc(OC(=O)c5cccnc5Cl)ccc4O[C@]3(C)CC[C@@H]12 | < 60 | < 60 | < 60 | < 60 | < 60 |  |  |  |  |
| CC1(C)CCC[C@]2(C)[C@@H](Cc3ccc(O)c(O)c3)[C@](C)(O)CC[C@@H]12 | 61 | 49 | 38 | 50 | 72 |  |  |  |  |
| COc1cc2c(cc1OC)O[C@]1(C)CC[C@H]3C(C)(C)CCC[C@]3(C)[C@H]1C2 | 21 | 13 | 29 | 9 | 5 |  |  |  |  |
| CC1(C)CCC[C@]2(C)[C@@H](Cc3c(O)cccc3O)[C@](C)(O)CC[C@@H]12 | 84 | 88 | 49 | 15 | 50 | 26.7 | 29.3 | 13.9 | 16 |
| Cc1cc(O)cc(O)c1C[C@@H]1[C@@]2(C)CCCC(C)(C)[C@@H]2CC[C@@]1(C)O | 82 | 92 | 56 | 65 | 29 | 40.4 | 35.2 | 11.1 | 11.3 |
| CC1(C)CCC[C@@]2(C)C1CC[C@@]1(C)Oc3ccc(-c4ccsc4)cc3C[C@@H]12 (some centres not stated) | < 60 | < 60 | < 60 | < 60 | < 60 |  |  |  |  |
| CC1(C)CCC[C@]2(C)[C@H]3Cc4cc(O)cc(O)c4[C@]3(C)CC[C@@H]12 | 43 | 68 | 60 | 49 | 65 |  |  |  |  |
| CC1(C)CCC[C@@]2(C)C1CC[C@@]1(C)Oc3ccc(-c4ccccc4)cc3C[C@@H]12 (some centres not stated) | < 60 | < 60 | < 60 | < 60 | < 60 |  |  |  |  |
| COc1ccc(NC(=O)Oc2ccc3c(c2)C[C@H]2[C@@](C)(CCC4C(C)(C)CCC[C@@]42C)O3)cc1 (some centres not stated) | < 60 | < 60 | < 60 | < 60 | < 60 |  |  |  |  |
| CC1(C)CCC[C@]2(C)[C@H]3Cc4cc(OC(=O)c5ccc6ccccc6n5)ccc4O[C@]3(C)CC[C@@H]12 | < 60 | < 60 | < 60 | < 60 | < 60 |  |  |  |  |
| CC1(C)CCC[C@]2(C)[C@@H](Cc3cc(O)cc(O)c3)[C@](C)(O)CC[C@@H]12 | 10 | -10 | 5 | -5 | 3 |  |  |  |  |
| CC1(C)CCC[C@]2(C)[C@@H](Cc3cccc(O)c3O)[C@](C)(O)CC[C@@H]12 | 42 | 42 | 36 | 24 | 24 |  |  |  |  |
| Cc1ccc(O)c(C[C@@H]2[C@@]3(C)CCCC(C)(C)[C@@H]3CC[C@@]2(C)O)c1 | 8 | -12 | -4 | -5 | 1 |  |  |  |  |
| CC1(C)CCC[C@]2(C)C3=CC4=CC(=O)C(=O)C=C4O[C@]3(C)CC[C@@H]12 | 37 | 15 | 44 | -2 | 18 |  |  |  |  |
| CC1(C)CCC[C@@]2(C)C1CC[C@@]1(C)Oc3ccc(-c4ccc(F)cc4)cc3C[C@@H]12 (some centres not stated) | < 60 | < 60 | < 60 | < 60 | < 60 |  |  |  |  |
| CC1(C)CCC[C@]2(C)[C@@H](Cc3cc(C(=O)O)ccc3O)[C@](C)(O)CC[C@@H]12 | 84 | 85 | 56 | 60 | 62 | 22.2 | 22.5 | > 50 | 50 |
| CC1(C)CCC[C@@]2(C)[C@H]1CCC1(C)Oc3ccc(Oc4cccnc4)cc3C[C@@H]12 (single isomer, unassigned) | < 60 | < 60 | < 60 | < 60 | < 60 |  |  |  |  |
| O=C(Nc1ccccc1-c1ccc(Cl)cc1)c1cccnc1Cl [BOSCALID] | 79 | 93 | 27 | 74 | 23 | 0.75 | 1.62 |  |  |
